This is an account of results in patent publication US8143025B2, “Antibodies against vascular endothelial growth factor receptor-1” (ImClone LLC, priority 2004, dated 2012).

The test concerns MDA-MB-435 xenograft. Put plainly: MDA-MB-435 breast tumor xenograft. It is filed as in vivo, mouse. The conditions noted are these: MDA-MB-435 model, differences did not reach statistical significance. As to the method:
Athymic nude mice (Charles River Laboratories, Wilmington, Mass.) were injected subcutaneously in the left flank area with 2×10^6 of DU4475 cells or 5×10^6 of MDA-MB-231 and MDA-MB-435 cells mixed in Matrigel (Collaborative Research Biochemicals. Bedford, Mass.). In the DU4475 and MDA-MB-231 models, tumors were allowed to reach approximately 200 mm^3 in size and then mice were randomized into groups of 12-16 animals per group. Animals received i.p. administration of the anti-VEGFR-I antibody clones 6F9, 15F11, or 18F1 at a dose of 0.5 mg (MDA-MB-231) or 1 mg (DU4475) three times each week. In the MDA-MB-435 model, the tumor cells were implanted subcutaneously into mammary fat pad area in the mouse. After tumors grew to reach approximately 200 mm^3 in size, mice were randomized into groups of 15 animals per group and intraperitoneally administered with 0.5 mg per dose of 18F1 antibody three times each week. Mice in control groups received an equal volume of saline solution. Treatment of animals was continued for the duration of the experiment. Tumors were measured twice each week with calipers. Tumor volumes were calculated using the formula [π/6 (w1×w2×w2)], where “w1” represents the largest tumor diameter and “w2” represents the smallest tumor diameter. […] Tumor growth was evaluated approximately twice weekly, with tumor volume calculated as π/6* (Length*Width^2), where Length=longest diameter and Width=diameter perpendicular to Length. Tumor dimensions were measured with calipers. T/C % was calculated as 100*(Final Treatment Tumor Volume/Initial Treatment Tumor Volume)/(Final Control Tumor Volume/Initial Control Tumor Volume). […] The effect of treatment on tumor growth was analyzed using repeated measures analysis of variance (RM ANOVA), p<0.05 was considered significant. […] AU treatments were administered i.p. The effect of treatments on tumor growth were analyzed using repeated measures analysis of variance (RM ANOVA), p<0.05 was considered significant.

Molecules are shown by their SMILES.

`O=P1(N(CCCl)CCCl)NCCCO1` (stereo not shown) [cyclophosphamide, reference compound] came in with a T/C % of 65%.
